Experimental data taken from US20260042769A1, “TRIARYL AGONISTS OF ALPHA-2 ADRENERGIC RECEPTORS” (ALCEPTOR THERAPEUTICS, INC., priority 2023, published 2026).
pEC50: −log10 of the molar value.

Target: T1, human ADRA2B receptor (Homo sapiens, UniProt P18089)
T1 construct: expressed in transfected cells
T1 sequence (P18089 1-450): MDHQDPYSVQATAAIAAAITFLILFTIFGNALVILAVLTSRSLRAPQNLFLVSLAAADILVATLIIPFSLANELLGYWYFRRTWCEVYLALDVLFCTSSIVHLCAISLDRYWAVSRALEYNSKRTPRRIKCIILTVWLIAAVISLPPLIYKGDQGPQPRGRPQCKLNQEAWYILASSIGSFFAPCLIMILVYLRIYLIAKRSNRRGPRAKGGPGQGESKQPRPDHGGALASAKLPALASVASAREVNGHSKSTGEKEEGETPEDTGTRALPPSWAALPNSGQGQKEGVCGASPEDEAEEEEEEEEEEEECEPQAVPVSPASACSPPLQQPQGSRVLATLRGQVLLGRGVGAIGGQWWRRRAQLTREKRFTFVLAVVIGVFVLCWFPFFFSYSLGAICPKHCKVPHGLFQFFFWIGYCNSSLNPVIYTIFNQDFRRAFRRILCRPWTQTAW
Experiment: ADRA2B arrestin agonist assay
Type: cell-based
Settings: CHO-K1 cells stably expressing human ADRA2B; read-out: Beta-Arrestin - Human Alpha2B EC50
Outline: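 CHO-K1 cells stably expressing human ADRA2B, thawed from frozen stock and plated overnight, were treated with agonist for 2 h at 37 °C. Arrestin recruitment detected by luminescence after 2 h with detection reagents at room temperature.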

Cc1nccc(CC(c2c[nH]cn2)c2cccc(Cl)c2C)n1 (centres unmarked) [Compound 158, 4-[2-(3-chloro-2-tolyl)-2-(4-imidazolyl)ethyl]-2-methylpyrimidine] and Cc1nccc(CC(c2c[nH]cn2)c2cccc(Cl)c2Cl)n1 (centres unmarked) [Compound 192, 4-[2-(2,3-dichlorophenyl)-2-(4-imidazolyl)ethyl]-2-methylpyrimidine] cannot be ordered by pEC50: over 8.00 for the first, over 8.00 for the second.

Cc1cccc(C(Cc2ccc(N(C)C)nc2)c2c[nH]cn2)c1C (centres unmarked) [Compound 292, N,N-dimethyl{5-[2-(4-imidazolyl)-2-(2,3-xylyl)ethyl]-2-pyridyl}amine] and Cc1cccc(C(Cc2ccc(C(=O)N(C)C)nc2)c2c[nH]cn2)c1C (centres unmarked) [Compound 311, N,N-dimethyl-5-[2-(4-imidazolyl)-2-(2,3-xylyl)ethyl]-2-pyridinecarboxamide] cannot be ordered by pEC50: over 8.00 for the first, over 8.00 for the second.

Cc1cccc(C(Cc2cnc3[nH]ccc3c2)c2c[nH]cn2)c1C (centres unmarked) [Compound 283, 4-[2-(1H-1,7-diazainden-5-yl)-1-(2,3-xylyl)ethyl]imidazole] and Cc1cccc(C(Cc2cnsc2)c2c[nH]cn2)c1C (centres unmarked) [Compound 391, 4-[2-(4-imidazolyl)-2-(2,3-xylyl)ethyl]isothiazole] cannot be ordered by pEC50: over 8.00 for the first, over 8.00 for the second.

Cc1cccc(C(Cc2ccncc2Cl)c2c[nH]cn2)c1C (centres unmarked) [Compound 396, 4-[2-(3-chloro-4-pyridyl)-1-(2,3-xylyl)ethyl]imidazole] and Cc1cc(CC(c2c[nH]cn2)c2cccc(C)c2C)c(Cl)cn1 (centres unmarked) [Compound 395, 4-[2-(5-chloro-2-methyl-4-pyridyl)-1-(2,3-xylyl)ethyl]imidazole] cannot be ordered by pEC50: over 8.00 for the first, over 8.00 for the second.

Cn1nccc1CC(c1c[nH]cn1)c1cccc2c1cnn2C (centres unmarked) [Compound 269, 4-[1-(4-imidazolyl)-2-(1-methyl-5-pyrazolyl)ethyl]-1-methyl-1H-indazole] and Cc1cccc([C@H](Cc2ccnn2C)c2c[nH]cn2)c1F [Compound 247, 5-[(S)-2-(2-fluoro-3-tolyl)-2-(4-imidazolyl)ethyl]-1-methylpyrazole] fall in the same range of pEC50: 6.30 to 7.30 for the first, 6.30 to 7.30 for the second.

First: COCc1cc(CC(c2c[nH]cn2)c2cccc(C)c2C)ccn1 (centres unmarked) [Compound 295, 4-{2-[2-(methoxymethyl)-4-pyridyl]-1-(2,3-xylyl)ethyl}imidazole]
Second: COCc1nccc(C[C@H](c2c[nH]cn2)c2cccc(C)c2C)n1 [Compound 346, 4-[(S)-2-(4-imidazolyl)-2-(2,3-xylyl)ethyl]-2-(methoxymethyl)pyrimidine]
The pEC50 of the first is higher: over 8.00 for the first, under 6.30 for the second. The first is the more potent here.

Compared with Cc1nnc(CC(c2c[nH]cn2)c2cccc(C)c2C)s1 (centres unmarked) [Compound 263, 2-[2-(4-imidazolyl)-2-(2,3-xylyl)ethyl]-5-methyl-1,3,4-thiadiazole], Cc1nc(C[C@H](c2c[nH]cn2)c2cccc(C)c2C)co1 [Compound 374, 4-[(S)-2-(4-imidazolyl)-2-(2,3-xylyl)ethyl]-2-methyl-1,3-oxazole] is lower in pEC50: 6.30 to 7.30 for the first, under 6.30 for the second.

Compared with Clc1cccc(C(Cc2cccnn2)c2c[nH]cn2)c1 (centres unmarked) [Compound 139, 3-[2-(m-chlorophenyl)-2-(4-imidazolyl)ethyl] pyridazine], Cc1cc(CC(c2c[nH]cn2)c2cccc(Cl)c2F)ncn1 (centres unmarked) [Compound 163, 4-[2-(3-chloro-2-fluorophenyl)-2-(4-imidazolyl)ethyl]-6-methylpyrimidine] is higher in pEC50: under 6.30 for the first, 6.30 to 7.30 for the second.

First: Cc1nc(C[C@@H](c2c[nH]cn2)c2cccc(C)c2C)c(C)o1 [Compound 379, 4-[(R)-2-(4-imidazolyl)-2-(2,3-xylyl)ethyl]-2,5-dimethyl-1,3-oxazole]
Second: Cc1nc(C[C@@H](c2c[nH]cn2)c2cccc(C)c2C)co1 [Compound 373, 4-[(R)-2-(4-imidazolyl)-2-(2,3-xylyl)ethyl]-2-methyl-1,3-oxazole]
The pEC50 of the first is higher: over 8.00 for the first, 7.30 to 8.00 for the second. The first is the more potent here.

c1cc2c(c(C(Cc3ccc4nccn4c3)c3c[nH]cn3)c1)OCC2 (centres unmarked) [Compound 300] and c1cc2c(c(C(Cc3ccn4ccnc4c3)c3c[nH]cn3)c1)OCC2 (centres unmarked) [Compound 398, 4-[2-(1,3a-diaza-6-indenyl)-1-(2,3-dihydro-1-benzofuran-7-yl)ethyl]imidazole] cannot be ordered by pEC50: over 8.00 for the first, over 8.00 for the second.

Cc1cccc(C(Cc2cccn3ccnc23)c2c[nH]cn2)c1C (centres unmarked) [Compound 402, 4-[2-(1,3a-diaza-7-indenyl)-1-(2,3-xylyl)ethyl]imidazole] and Cc1cccc(C(Cc2cnc3cnccn23)c2c[nH]cn2)c1C (centres unmarked) [Compound 285, 3-[2-(4-imidazolyl)-2-(2,3-xylyl)ethyl]-1,3a,6-triazaindene] fall in the same range of pEC50: 7.30 to 8.00 for the first, 7.30 to 8.00 for the second.

COc1nccc(CC(c2c[nH]cn2)c2cccc(C(F)(F)F)c2C)n1 (centres unmarked) [Compound 202, 4-{2-(4-imidazolyl)-2 [3-(trifluoromethyl)-2-tolyl]ethyl}-2-methoxypyrimidine] and COC(C)(C)c1nccc(CC(c2c[nH]cn2)c2cccc(C)c2C)n1 (centres unmarked) [Compound 209, 4-[2-(4-imidazolyl)-2-(2,3-xylyl)ethyl]-2-(1-methoxy-1-methylethyl)pyrimidine] cannot be ordered by pEC50: over 8.00 for the first, over 8.00 for the second.

First: [2H]C([2H])([2H])Oc1c(C)cccc1C(Cc1ccnc(C)n1)c1c[nH]cn1 (centres unmarked) [Compound 359, 4-{2-(4-imidazolyl)-2-[2-(^2H3)methoxy-3-tolyl]ethyl}-2-methylpyrimidine]
Second: COc1c(C)cccc1C(Cc1ccnc(CO)n1)c1c[nH]cn1 (centres unmarked) [Compound 347, {4-[2-(4-imidazolyl)-2-(2-methoxy-3-tolyl)ethyl]-2-pyrimidinyl}methanol]
The pEC50 of the first is higher: 7.30 to 8.00 for the first, 6.30 to 7.30 for the second. The first is the more potent here.

First: Cc1cccc([C@@H](Cc2cccc(CF)n2)c2c[nH]cn2)c1C [Compound 150, 4-{(R)-2-[6-(fluoromethyl)-2-pyridyl]-1-(2,3-xylyl)ethyl}imidazole]
Second: Cc1cccc([C@H](Cc2cccc(C(C)(C)O)n2)c2c[nH]cn2)c1C [Compound 305, 2-{6-[(S)-2-(4-imidazolyl) 2-(2,3-xylyl)ethyl]-2-pyridyl}-2-propanol]
The pEC50 of the first is higher: over 8.00 for the first, under 6.30 for the second.

Going from Cc1nccc(CC(c2ccc3c(c2)OCCO3)c2c[nH]cn2)n1 (centres unmarked) [Compound 175, 4-[2-(2,3-dihydro-1,4-benzodioxin-6-yl)-2-(4 imidazolyl)ethyl]-2-methylpyrimidine] to OCc1nccc(CC(c2c[nH]cn2)c2cccc3c2OCC3)n1 (centres unmarked) [Compound 344, {4-[2-(2,3-dihydro-1-benzofuran-7-yl)-2-(4-imidazolyl)ethyl]-2-pyrimidinyl}methanol], the pEC50 rises from under 6.30 to over 8.00. The second is the more potent here.

Compared with COc1c(C)cccc1C(Cc1cn(C)nn1)c1c[nH]cn1 (centres unmarked) [Compound 260, 4-[2-(4-imidazolyl)-2-(2-methoxy-3-tolyl)ethyl]-1-methyl-1H-1,2,3-triazole], Cc1cccc([C@H](Cc2cn(C)nn2)c2c[nH]cn2)c1C [Compound 240, 4-[(S)-2-(4-imidazolyl)-2-(2,3-xylyl)ethyl]-1-methyl-1H-1,2,3-triazole] is higher in pEC50: 6.30 to 7.30 for the first, over 8.00 for the second. The second is the more potent here.

Compared with COc1nc(CC(c2c[nH]cn2)c2cccc3c2OCC3)ccc1F (centres unmarked) [Compound 313, 4-[1-(2,3-dihydro-1-benzofuran-7-yl)-2-(5-fluoro-6-methoxy-2-pyridyl)ethyl]imidazole], Cc1cccc(C[C@@H](c2c[nH]cn2)c2cccc3c2OCC3)n1 [Compound 265, 4-[(R)-1-(2,3-dihydro-1-benzofuran-7-yl)-2-(6-methyl-2-pyridyl)ethyl]imida-zole] is lower in pEC50: over 8.00 for the first, 7.30 to 8.00 for the second.

Cc1cccc(C(Cc2ccc(F)nc2)c2c[nH]cn2)c1F (centres unmarked) [Compound 323, 4-[2-(6-fluoro-3-pyridyl)-1-(2-fluoro-3-tolyl)ethyl]imidazole] and Cc1cccc(C(Cc2cc[nH]n2)c2c[nH]cn2)c1F (centres unmarked) [Compound 236, 3-[2-(2-fluoro-3-tolyl)-2-(4-imidazolyl)ethyl]pyrazole] fall in the same range of pEC50: 6.30 to 7.30 for the first, 6.30 to 7.30 for the second.

First: Cn1nccc1CC(c1c[nH]cn1)c1cccc2c1OCCCO2 (centres unmarked) [Compound 299, 5-[2-(3,4-dihydro-2H-1,5-benzodioxepin-6-yl)-2-(4-imidazolyl)ethyl]-1-]
Second: c1cc2c(c([C@H](Cc3cc[nH]n3)c3c[nH]cn3)c1)OCC2 [Compound 238, 3-[(S)-2-(2,3-dihydro-1-benzofuran-7-yl)-2-(4-imidazolyl)ethyl]pyrazole]
The pEC50 of the first is lower: under 6.30 for the first, 7.30 to 8.00 for the second. The second is the more potent here.

Going from COc1nccc(CC(c2c[nH]cn2)c2ccccc2S(=O)(=O)N2CCCC2)n1 (centres unmarked) [Compound 358, 4-{2-(4-imidazolyl)-2-[o-(1-pyrrolidinylsulfonyl)phenyl]ethyl}-2-methoxypyrimidine] to COc1cc(CC(c2c[nH]cn2)c2cccc3c2OCC3)ccn1 (centres unmarked) [Compound 314, 4-[1-(2,3-dihydro-1-benzofuran-7-yl)-2-(2-methoxy-4-pyridyl)ethyl]imidazole], the pEC50 rises from under 6.30 to over 8.00. The second is the more potent here.

First: COc1c(C)cccc1C(Cc1cnco1)c1c[nH]cn1 (centres unmarked) [Compound 375, 5-[2-(4-imidazolyl)-2-(2-methoxy-3-tolyl)ethyl]-1,3-oxazole]
Second: Cc1cccc(C(Cc2ccns2)c2c[nH]cn2)c1C (centres unmarked) [Compound 244, 5-[2-(4-imidazolyl)-2-(2,3-xylyl)ethyl]isothiazole]
The pEC50 of the first is lower: 6.30 to 7.30 for the first, over 8.00 for the second.

First: Cc1cccc([C@H](Cc2ccn(CF)n2)c2c[nH]cn2)c1C [Compound 261, 3-[(S)-2-(4-imidazolyl)-2-(2,3-xylyl)ethyl]-1-(fluoromethyl)pyra-zole]
Second: Cc1cccc(CC(c2c[nH]cn2)c2cccc3ccn(C)c23)n1 (centres unmarked) [Compound 284, 4-[1-(1-methyl-7-indolyl)-2-(6-methyl-2-pyridyl)ethyl]imidazole]
The pEC50 of the first is higher: over 8.00 for the first, 7.30 to 8.00 for the second.
